Results reported in US5714666A, “Measurement of intracellular calcium using bioluminescent apoaequorin expressed in mammalian cells” (Children's Hospital of Philadelphia, priority 1995, dated 1998).
Each block holds one compound with its values, some of them ahead of it.

Key:
Type in all cases: cell-based
human 293 cells = experiment: Aequorin expression assay in human 293 cells transfected with a single plasmid (pDPaqneo3, pDP5ht2neo3 or pDP3 vector)
Procedure: Human 293 cells were cultured on 100 mm tissue culture dish in minimum essential medium (MEM) containing 10% charcoal treated fetal bovine serum, 2 mM L-glutamine, 100 units penicillin G sodium per ml, 100 units streptomycin sulfate per ml. DNA mediated transfection was performed when these cells grew to 70% to 80% confluence on the plates. These transfected cells were incubated in 3% CO2, 37° C. incubator overnight. Cells were replenished with fresh medium and transferred to 5% CO2, 37° C. incubator the next day [C. […] (17).
Two days after the transfection, cells were washed twice with phosphate buffered saline (PBS). Cells were then harvested by ice-cold PBS and rubber policeman. After centrifugation at 1,600 r.p.m. for 5 minutes, the pellet was dissolved in Ca^++ -free AqH buffer (120 mM NaCl, 4.8 mM KCl, 1.2 mM KH2 PO4, 25 mM Hepes, 0.1% bovine serum albumin, pH 7.4) at a concentration about 10 million cells per 1 ml solution. Tubes containing cells were wrapped with aluminum foil. Coelenterazine was a generous gift from Dr. Kishi, Harvard University and Dr. Shimomura, Marine Biological Laboratory. It was stored at -70° C., dissolved in methanol immediately before use, and kept in the dark at all times. […] Aequorin was reconstituted incubating these apoaequorin cDNA transfected cells with 10 μM coelenterazine in the dark room temperature for 30 minutes. Unincorporated coelenterazine was washed away after incubation by adding 25 ml Ca^++ -free AqH buffer to each sample and centrifugating at 1,600 r.p.m. Samples were centrifuged again and pellets of 293 cells were dissolved in Ca^++ -free AqH buffer. The final concentration of cells was approximately 10 million per 1 ml solution. For light emission measurement, 100 μl of cell sample was mixed with equal volume of appropriate reagent in a 2 ml glass tube immediately before inserted into the luminometer (Berthold Biolumat LB 9500). Counting of light emission started immediately after the glass tube insertion. The number of photons emitted during the first 30 seconds was integrated by the luminometer and shown on the screen. The time course of light emission was recorded on a chart recorder and a Mackintosh computer using the MacLab Chart/4 V3.1.3 program for further analysis.

[1] = test system: mouse primary neuron culture; experiment: Photon emission of primary neuron cultures from apoaequorin transgenic mice
Procedure: A transgenic mouse was mated with non-transgenic mouse B6XSJLF1 female mouse. The whole brains were removed from 19 day old mouse embryos and used to make primary neuronal cultures and incubated in minimum essential medium containing 500 μg genticin per ml. After ten days, cells were removed from plates, mixed with colenterazine and tested for aequorin expression using an expression assay.
Embryos resulting from mating transgenic mouse no.
Thereafter 10 μl (1 mg/ml PBS) Br-A23187 and 0.5 mM CaCl2 were added to the cell culture. The drug Br-A23187 opens calcium channels.

5-HT2 receptor = target: T1, 5-HT2 receptor (Rattus norvegicus, UniProt P14842); experiment: Aequorin light emission assay in human 293 cells co-transfected with apoaequorin cDNA and 5-HT2 cDNA; conditions: for Antagonist inhibition of light emission in response to serotonin: 50 μM antagonist, 30 seconds before 10 μM serotonin, FIG. 2
T1 construct: expressed in transfected cells; host or cells: human 293 cells, transiently co-transfected with pDPaqneo3 (apoaequorin) and pDP5ht2neo3
Procedure: DNA from the apoaequorin plasmid (pDPaqneo3) and the 5-HT2 plasmid (pDPSht2neo3) were mixed in equal portions in the transfection solution immediately before transfection. Transfection was performed as described in Example 2.
Two days after the transfection, cells were washed twice with phosphate buffered saline (PBS). Cells were then harvested by ice-cold PBS and rubber policeman. After centrifugation at 1,600 r.p.m. for 5 minutes, the pellet was dissolved in Ca^++ -free AqH buffer (120 mM NaCl, 4.8 mM KCl, 1.2 mM KH2 PO4, 25 mM Hepes, 0.1% bovine serum albumin, pH 7.4) at a concentration about 10 million cells per 1 ml solution. Tubes containing cells were wrapped with aluminum foil. Coelenterazine was a generous gift from Dr. Kishi, Harvard University and Dr. Shimomura, Marine Biological Laboratory. It was stored at -70° C., dissolved in methanol immediately before use, and kept in the dark at all times. The concentration of coelenterazine was estimated by the measurement of absorbance at 434 nanometer [the molar absorptivity434 =8,900 M^-1·cm^-1; K. Hori, H. Charbonneau, R. C. Hart, M. J. Cormier, Proc. Natl. Acad. Sci. U.S.A. 74, 4285 (1977)]. Aequorin was reconstituted incubating these apoaequorin cDNA transfected cells with 10 μM coelenterazine in the dark room temperature for 30 minutes. Unincorporated coelenterazine was washed away after incubation by adding 25 ml Ca^++ -free AqH buffer to each sample and centrifugating at 1,600 r.p.m. Samples were centrifuged again and pellets of 293 cells were dissolved in Ca^++ -free AqH buffer. The final concentration of cells was approximately 10 million per 1 ml solution. For light emission measurement, 100 μl of cell sample was mixed with equal volume of appropriate reagent in a 2 ml glass tube immediately before inserted into the luminometer (Berthold Biolumat LB 9500). Counting of light emission started immediately after the glass tube insertion. The number of photons emitted during the first 30 seconds was integrated by the luminometer and shown on the screen. The time course of light emission was recorded on a chart recorder and a Mackintosh computer using the MacLab Chart/4 V3.1.3 program for further analysis.
Intracellular calcium concentration was measured as described in Example 15.

T1 sequence (P14842 whole entry): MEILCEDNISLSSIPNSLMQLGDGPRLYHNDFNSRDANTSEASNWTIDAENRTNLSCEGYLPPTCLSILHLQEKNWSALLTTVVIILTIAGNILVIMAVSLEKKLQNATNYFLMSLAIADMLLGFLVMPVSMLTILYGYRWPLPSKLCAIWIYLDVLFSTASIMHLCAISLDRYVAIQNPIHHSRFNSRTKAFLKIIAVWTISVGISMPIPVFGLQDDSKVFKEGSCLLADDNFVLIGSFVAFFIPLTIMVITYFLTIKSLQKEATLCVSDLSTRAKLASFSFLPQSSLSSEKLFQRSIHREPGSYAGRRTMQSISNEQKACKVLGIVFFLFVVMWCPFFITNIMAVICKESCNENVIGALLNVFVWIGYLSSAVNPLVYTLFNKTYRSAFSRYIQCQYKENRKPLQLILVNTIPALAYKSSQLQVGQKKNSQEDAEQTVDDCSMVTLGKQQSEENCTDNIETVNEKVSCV

Compound: [Ca+2].[Cl-].[Cl-] [Ca^++, CaCl2]
Detected photons (human 293 cells; cells transfected with pDP3 vector only, 50 nM Ca++): 1,607 photons
Detected photons (human 293 cells; cells transfected with pDP5ht2neo3 only, 50 nM Ca++): 1,346 ± 167 photons
Photons detected upon addition of Ca++ (human 293 cells; cells transfected with pDPaqneo3 and incubated with coelenterazine cofactor): rapid and dramatic increase in the photons detected
Detected photons (human 293 cells; cells transfected with pDPaqneo3 only, 50 nM Ca++): 293,209 photons
Emission of photons upon addition of Ca++ (human 293 cells; cells transfected with plasmids not containing apoaequorin cDNA and untransfected cells): no rise in the emission of photons
Light emission upon addition of Ca++ (human 293 cells; pDPaqneo3 transfected cells not incubated with coelenterazine cofactor): no increase of light emission
Photon emission (excitotoxicity) ([1]; 100 μl of 100 mM CaCl2, control non-transgenic neuronal culture no. 6, FIG. 5B): no excitotoxic effect
Photon emission (excitotoxicity) ([1]; 100 μl of 100 mM CaCl2, culture from transgenic mouse no. 2, FIG. 5A): increase in cell excitotoxicity

Compound: O=C(O)CN(CCN(CC(=O)O)CC(=O)O)CC(=O)O [EDTA]
Effect on Ca++ induced photon emission (human 293 cells; EDTA added to buffer, pDPaqneo3-transfected cells (data not shown)): prevented the increase in photon emission

Compound: NCCc1c[nH]c2ccc(O)cc12 [serotonin]
Photon emission upon addition of serotonin (5-HT2 receptor; cells co-transfected with pDPaqneo3 and pDP5ht2neo3): dramatic rise in photon emission
Detected photons (5-HT2 receptor; cells transfected with pDPaqneo3 & pDP5ht2neo3, 500 nM, first 30 seconds): 79,840 ± 3,342 photons
Photon emissions per cell (5-HT2 receptor; saturating concentration (500 μM)): ≤ 40 photons per cell
Detected photons (human 293 cells; cells transfected with pDP3 vector only, 500 nM): 1,599 photons
Detected photons (human 293 cells; cells transfected with pDP5ht2neo3 only, 500 nM): 1,308 ± 339 photons
Photon emission upon serotonin treatment (human 293 cells; cells transfected with pDPaqneo3 only, pDP5ht2neo3 only or pDP3 vector only): no increase of photo emission
Detected photons (human 293 cells; cells transfected with pDPaqneo3 only, 500 nM): 6,150 photons

Compound: Br-A23187
Photon emission (excitotoxicity) ([1]; 10 μl (1 mg/ml PBS) Br-A23187 with 0.5 mM CaCl2, culture from transgenic mouse no. 20, FIG. 6A): increased excitotoxicity
Photon emission (excitotoxicity) ([1]; Br-A23187 with 0.5 mM CaCl2 and 50 mM EGTA, culture from transgenic mouse no. 20, FIG. 6B): increased excitotoxicity

Other lines, results leading:

Antagonist inhibition of light emission in response to serotonin (5-HT2 receptor): inhibited
Compound: CN(C)CCCSc1ccccc1NC(=O)/C=C/c1ccccc1 [cinanserin]

Antagonist inhibition of light emission in response to serotonin (5-HT2 receptor): inhibited
Compound: O=C(c1ccc(F)cc1)C1CCN(CCn2c(=O)[nH]c3ccccc3c2=O)CC1 [ketanserin]
